The values below are quoted from earlier work in patent US20160174603A1, “Electronic Vapor Liquid Composition and Method of Use” (priority 2014, published 2016).

The subject of data set [1] is dopamine levels in the nucleus accumbens. Particulars: rat, in vivo.
The next data set addresses T1, MAO-B (Homo sapiens, UniProt P27338).
T1 sequence (P27338 1-520): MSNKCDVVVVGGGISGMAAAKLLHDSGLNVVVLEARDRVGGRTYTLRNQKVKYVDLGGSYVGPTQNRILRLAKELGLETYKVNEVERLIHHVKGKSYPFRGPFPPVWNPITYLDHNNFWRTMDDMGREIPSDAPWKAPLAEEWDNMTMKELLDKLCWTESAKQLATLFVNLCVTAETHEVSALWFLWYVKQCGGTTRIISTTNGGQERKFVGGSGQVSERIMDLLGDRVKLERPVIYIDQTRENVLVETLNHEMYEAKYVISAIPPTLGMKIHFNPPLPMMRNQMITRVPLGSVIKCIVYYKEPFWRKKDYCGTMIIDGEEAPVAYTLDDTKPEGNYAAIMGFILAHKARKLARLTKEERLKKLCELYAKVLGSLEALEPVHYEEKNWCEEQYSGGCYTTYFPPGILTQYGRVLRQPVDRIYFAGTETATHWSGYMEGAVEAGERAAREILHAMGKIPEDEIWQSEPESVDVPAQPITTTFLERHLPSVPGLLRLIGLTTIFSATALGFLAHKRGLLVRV
Particulars: read-out: Ki, reversible MAO-B inhibitor.

In a further data set the target is T2, TRPC6 receptor (Homo sapiens, UniProt Q9Y210).
T2 sequence (Q9Y210 1-931): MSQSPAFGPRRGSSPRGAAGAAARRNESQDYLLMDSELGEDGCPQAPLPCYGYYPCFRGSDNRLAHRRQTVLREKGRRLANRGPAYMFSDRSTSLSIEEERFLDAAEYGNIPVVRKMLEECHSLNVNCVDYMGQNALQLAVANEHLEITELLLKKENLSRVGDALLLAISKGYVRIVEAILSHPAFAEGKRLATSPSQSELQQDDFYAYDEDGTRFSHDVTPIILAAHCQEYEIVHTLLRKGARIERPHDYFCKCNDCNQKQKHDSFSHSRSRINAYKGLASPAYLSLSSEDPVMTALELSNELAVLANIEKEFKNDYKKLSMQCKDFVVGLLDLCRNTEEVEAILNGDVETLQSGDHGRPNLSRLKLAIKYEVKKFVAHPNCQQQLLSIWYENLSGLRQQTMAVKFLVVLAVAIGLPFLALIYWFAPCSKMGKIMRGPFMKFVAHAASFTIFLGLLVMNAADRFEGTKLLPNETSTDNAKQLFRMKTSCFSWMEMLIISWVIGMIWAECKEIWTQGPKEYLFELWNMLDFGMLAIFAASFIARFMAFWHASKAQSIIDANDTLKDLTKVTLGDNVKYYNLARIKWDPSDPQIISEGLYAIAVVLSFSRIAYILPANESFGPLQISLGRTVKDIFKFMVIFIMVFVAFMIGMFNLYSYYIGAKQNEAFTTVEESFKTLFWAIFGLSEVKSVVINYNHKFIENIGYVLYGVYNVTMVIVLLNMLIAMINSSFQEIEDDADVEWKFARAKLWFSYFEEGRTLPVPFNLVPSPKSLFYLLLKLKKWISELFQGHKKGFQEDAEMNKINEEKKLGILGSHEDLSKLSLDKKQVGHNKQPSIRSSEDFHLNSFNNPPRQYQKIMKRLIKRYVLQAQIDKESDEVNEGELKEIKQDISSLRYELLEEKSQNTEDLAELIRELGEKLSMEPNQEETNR

Data set [2] concerns the target norepinephrine transporter (NAT) (Homo sapiens, UniProt P23975). As to conditions: both enantiomeric forms.
A further data set deals with adenosine receptor. Particulars: in vitro.
The next data set deals with acetylcholinesterase (Homo sapiens, UniProt P22303). As to conditions: in vitro.
Sequence of acetylcholinesterase (P22303 32-614, species assumed): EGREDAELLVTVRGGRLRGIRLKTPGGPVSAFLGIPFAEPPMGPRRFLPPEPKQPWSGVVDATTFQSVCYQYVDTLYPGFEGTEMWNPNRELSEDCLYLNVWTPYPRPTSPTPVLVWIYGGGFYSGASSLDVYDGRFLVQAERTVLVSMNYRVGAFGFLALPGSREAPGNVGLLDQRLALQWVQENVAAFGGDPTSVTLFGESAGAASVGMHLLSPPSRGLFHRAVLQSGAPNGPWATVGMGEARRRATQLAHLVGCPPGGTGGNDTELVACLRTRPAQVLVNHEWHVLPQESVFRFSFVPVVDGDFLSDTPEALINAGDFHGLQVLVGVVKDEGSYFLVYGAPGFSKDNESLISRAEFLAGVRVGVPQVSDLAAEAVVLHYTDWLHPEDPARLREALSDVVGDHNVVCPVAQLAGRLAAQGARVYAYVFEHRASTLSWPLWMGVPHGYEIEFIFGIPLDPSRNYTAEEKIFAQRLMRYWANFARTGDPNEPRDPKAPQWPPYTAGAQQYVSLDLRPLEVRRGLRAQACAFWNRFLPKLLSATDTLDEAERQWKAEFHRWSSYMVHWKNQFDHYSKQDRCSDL

Sequence of norepinephrine transporter (NAT) (P23975 whole entry): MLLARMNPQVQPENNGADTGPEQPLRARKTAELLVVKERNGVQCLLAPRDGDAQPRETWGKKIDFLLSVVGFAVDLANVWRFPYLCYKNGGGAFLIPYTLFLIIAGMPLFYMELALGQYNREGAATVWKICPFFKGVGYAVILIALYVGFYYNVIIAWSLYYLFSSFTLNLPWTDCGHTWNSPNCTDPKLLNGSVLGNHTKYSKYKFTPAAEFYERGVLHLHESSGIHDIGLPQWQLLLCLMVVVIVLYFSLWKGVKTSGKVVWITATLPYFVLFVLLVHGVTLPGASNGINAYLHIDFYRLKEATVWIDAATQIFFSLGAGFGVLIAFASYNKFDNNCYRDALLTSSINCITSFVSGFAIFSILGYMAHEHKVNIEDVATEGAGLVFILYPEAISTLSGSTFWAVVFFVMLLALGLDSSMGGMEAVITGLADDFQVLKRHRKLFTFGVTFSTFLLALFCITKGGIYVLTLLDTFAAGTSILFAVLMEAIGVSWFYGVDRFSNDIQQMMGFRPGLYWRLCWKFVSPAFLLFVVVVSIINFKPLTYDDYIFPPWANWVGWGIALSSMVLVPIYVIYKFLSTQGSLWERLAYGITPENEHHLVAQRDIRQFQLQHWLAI

As to `O=C(O)[C@H]1O[C@@H](Oc2cc3oc(-c4ccccc4)cc(=O)c3c(O)c2O)[C@H](O)[C@@H](O)[C@@H]1O` [Baicalin], in the data set on thermal hyperalgesia, the “effects in a rat model of thermal hyperalgesia” value was “anti-inflammatory and analgesic effects”.
As for `COc1cc(/C=C/c2ccccc2)oc(=O)c1` [Desmethoxyyangonin], the “dopamine levels in the nucleus accumbens” value in [1] is on record as “able to increase dopamine levels”. The Ki at MAO-B was 0.28 µM.
Take `CC(C)=CCC[C@]1(C)[C@@H](CC=C(C)C)C[C@@]2(CC=C(C)C)C(=O)[C@]1(C(=O)C(C)C)C(=O)C(CC=C(C)C)=C2O` [Hyperforin]: the TRPC6 receptor activity entry at TRPC6 receptor is reported as “TRPC6 receptor agonists”.
On to `COC1=CC(=O)O[C@@H](/C=C/c2ccccc2)C1` [Kavain], for which, in data set [2], the “reuptake of norepinephrine at the transporter (NAT)” value is on record as “inhibits the reuptake of norepinephrine”.
For the compound `CCC(C)C(=O)[C@]12C(=O)[C@](CC=C(C)C)(C[C@H](CC=C(C)C)[C@@]1(C)CCC=C(C)C)C(=O)C(CC=C(C)C)=C2O` (stereo partly shown) [adhyperforin], the TRPC6 receptor activity result on TRPC6 receptor is on record as “TRPC6 receptor agonists”.
For `C=C1C(=O)O[C@@H]2[C@H]3C(CO)=CC(=O)C3=C(C)C[C@@H](O)[C@@H]12` [lactucin], in the data set on adenosine receptor, the adenosine receptor activity result is reported as “adenosine receptor agonist”.
With `CC[C@H]1CN2CC[C@]3(C(=O)Nc4ccccc43)[C@@H]2C[C@@H]1/C(=C\OC)C(=O)OC` [rhynchophylline], the calcium channel activity entry with calcium channel is “calcium channel blocker”. Also, in the data set on NMDA-induced current, the “effect on NMDA-induced current” value was “reduces NMDA-induced current”.
Regarding lactucopicrin, the acetylcholinesterase activity entry on acetylcholinesterase was “acetylcholinesterase inhibitor”.
